In US20240173377A1, “RETRO - INVERSO REGULATORY T CELL EPITOPES” (EpiVax, Inc., priority 2020, published 2024):
“Also recorded” adds a separate entry of the source.

Key:
[1] = biological target: Class II HLA alleles (HLA DRB1); assay: HLA binding assay (soluble MHC, competition with labeled control peptide); set-up: species or system human; conditions: retro-inverso peptide versus L-amino acid counterpart (SEQ ID NOS: 114 and 115); HLA DRB1 *0101, *0301, *0401, *0401, *0701, *1101, *1301 and *1501; FIG. 3
Experimental: HLA Binding Assay. Binding activity is analyzed at EpiVax (Providence, Rhode Island). The binding assay used (Steere A C et al., (2006), J Exp Med, 2003(4):961-71) yields an indirect measure of peptide-MHC affinity. Soluble HLA molecules are loaded onto a 96-well plate with the unlabeled experimental retro-inverso Tregitopes and labeled control peptide. Once the binding mixture reaches steady equilibrium (at 24 hours), the HLA-retro-inverso Tregitope complexes are captured on an ELISA plate coated with anti-human DR antibody and detected with a Europium-linked probe for the label (PerkinElmer, Waltham, MA). Time-resolved fluorescence measuring bound labeled control peptide is assessed by a SpectraMax® M5 unit (Spectramax, Radnor, PA). Binding of experimental retro-inverso Tregitopes is expressed as the percent inhibition of the labeled control peptide ([…]). The percent inhibition values for each experimental retro-inverso Tregitope (across a range of molar concentrations) is used to calculate the concentration at which it inhibits 50% of the labeled control […] specific binding, i.e. the retro-inverso Tregitope's IC50. […]

CD4+ T cells = assay: Tetanus Toxoid bystander assay, CD4+ T cell proliferation in PBMC (CFSE); assay type: cell-based, human; conditions: TT-treated PBMCs of four donors; versus L-amino acid counterparts (SEQ ID NOS: 114 and 115); FIGS. 7A-7B, 8A-8B
Source text: The purpose of this experiment is to establish the ability of the instantly-disclosed retro-inverso Tregitopes (e.g., any one or more of SEQ ID NO: 1-29 and 42-107 and/or fragments and variants thereof, and optionally 1 to 12 additional amino acids distributed in any ratio on the N-terminus and/or C-terminus of the polypeptide of SEQ ID NOS: 1-29 and 42-107 as disclosed herein, wherein each of the amino acids of SEQ ID NOS: 1-29 and 42-107 (and in aspects, the optional extensions thereof) except for glycine are in the D-amino acid configuration) of the instant disclosure to suppress the proliferation CD4+ Tcells, including antigen stimulated CD4+ effector memory T cells, which in aspects is by either direct (engagement and activation of TReg) or indirect (modulation of APC phenotype) means. […]

human DR molecules = conditions: cited from earlier work
[2] = system: PBMCs from lupus patients; conditions: randomly selected lupus patients; cited from earlier work

Sequence | IC50 values, binding to HLA DRB1 alleles [1] | ability to reduce CD4+ cell proliferation (CD4+ T cells) | binding to soluble HLA class II molecules (human DR molecules) | lupus patients whose PBMCs contain T cells that proliferate in response to the peptide [2]
DQHLVTLVSVVTYTSNYQEE [SEQ ID NO: 16] | scored comparably; also recorded: comparable affinity | comparable ability |  | 
KGYIFSHGTFHITLI [SEQ ID NO: 100] | scored comparably; also recorded: comparable affinity | comparable ability |  | 
RIHMVYSKRSGKPRGYAFIEY (listed as Homo sapiens) [peptide 131-151] |  |  | binds to a large panel of human DR molecules | 40%
